Data as given in US9458101B2 (priority 2009, dated 2016).

Key:
M006X (Human glioma) = assay: Cytotoxicity testing (MTS) on M006X; format: cell-based
Experimental: (§1) Cell lines used were A549 (Human lung carcinoma), HeLa (Human cervical carcinoma), MCF-7 (Human mammary gland adenocarcinoma), CEM (Human T-lymphoblastoid from ALL (Acute lymphoblastic leukemia)), M010B (Human glioma), M006X (Human glioma) and Jurkat (Human T-cell leukemia).
(§2) A series of dilutions were prepared and a wavelength scan of the diluted solution was used to determine the wavelength of maximum absorbance for each compound. Five standardized drug concentrations were scanned at this pre-determined wavelength to obtain an estimate of the compound's extinction coefficient.
(§3) A primary MTS assay was used to test the optimal number of cells for cytotoxicity assays. Cells were trypsinized, counted and introduced into seven lanes of a 96-well plate at different cell numbers (eight replicates per lane). Optimal cell numbers were determined after 72 and 96 hours of growth and were used in subsequent cytotoxicity assays. […] Cell viability was determined using the Cell Titer 96 AQueous One Solution Cell Proliferation Assay (Promega, U.S.A.).
(§4) Fits were performed using a dose-response model ideal for data showing an initial response plateau, a transition region, and a final response plateau.
(§5) [formula] […] Itop is the response obtained at very low/no drug concentration. The data and all parameters were normalized to Itop−Ibot, a measure of the maximum effect of the drug.

[1] = system: A549 (Human lung carcinoma); assay: Cytotoxicity testing (MTS) on A549; format: cell-based
Experimental: as §1, §2, §3, §4, §5

[2] = system: MCF-7 (Human mammary gland adenocarcinoma); assay: Cytotoxicity testing (MTS) on MCF-7; format: cell-based
Experimental: as §1, §2, §3, §4, §5

[3] = system: HeLa (Human cervical carcinoma); assay: Cytotoxicity testing (MTS) on HeLa; format: cell-based
Experimental: as §1, §2, §3, §4, §5

[4] = system: CEM (Human T-lymphoblastoid from ALL); assay: Cytotoxicity testing (MTS) on CEM; format: cell-based
Experimental: as §1, §2, §3, §4, §5

M010B (Human glioma) = assay: Cytotoxicity testing (MTS) on M010B; format: cell-based
Experimental: as §1, §2, §3, §4, §5

[5] = system: A549, HeLa, MCF-7 and CEM cell lines; assay: Cytotoxicity, mean over A549, HeLa, MCF-7 and CEM cell lines; settings: for IC50 [log10 M] (mean logIC50): mean over A549, HeLa, MCF-7 and CEM cell lines; for cytotoxicity compared with colchicine: cytotoxicity assays; for average IC50 values compared with colchicine: average values of Table 3
From the text: as §1, §3, §5
Cytotoxicity screening was performed on a number of cell lines based on the cancer of origin and differing morphologies.

Row | SMILES | Fraction of cells that survive at the highest drug concentrations (Ibot) (M006X (Human glioma)) | logIC50 (M006X (Human glioma)) [log10 M] | Fraction of cells that survive at the highest drug concentrations (Ibot) [1] | logIC50 [1] [log10 M] | Fraction of cells that survive at the highest drug concentrations (Ibot) [2] | logIC50 [2] [log10 M] | Fraction of cells that survive at the highest drug concentrations (Ibot) [3] | logIC50 [3] [log10 M] | Fraction of cells that survive at the highest drug concentrations (Ibot) [4] | logIC50 [4] [log10 M] | Fraction of cells that survive at the highest drug concentrations (Ibot) (M010B (Human glioma)) | logIC50 (M010B (Human glioma)) [log10 M] | IC50 [log10 M] (mean logIC50) [5] | cytotoxicity compared with colchicine [5] | average IC50 values compared with colchicine [5] | IC50 ([5]; cytotoxicity experiments, most potent derivative) [nM]
1 | COc1cc2c(c(OCc3ccc(Cl)cc3)c1OC)-c1ccc(OC)c(=O)cc1[C@@H](NC(C)=O)CC2 [Compound 15] | 0.058 ± 0.030 | −6.45 ± 0.13 | 0.288 ± 0.020 | −6.23 ± 0.08 | 0.381 ± 0.024 | −6.35 ± 0.12 | 0.039 ± 0.034 | −6.22 ± 0.09 | −0.016 ± 0.032 | −6.57 ± 0.11 | 0.382 ± 0.028 | −6.38 ± 0.14 | −6.34 ± 0.10 | – | – | –
2 | CCCOc1c(OC)c(OC)cc2c1-c1ccc(OC)c(=O)cc1[C@@H](NC(C)=O)CC2 [Compound 8, N-[(7S)-2,3,10-trimethoxy-9-oxo-1-(propanoxy)-5,6,7,9-tetrahydrobenzo[α]heptalen-7-yl]acetamide] | 0.072 ± 0.014 | −7.98 ± 0.03 | 0.246 ± 0.013 | −7.80 ± 0.07 | 0.433 ± 0.013 | −7.50 ± 0.12 | 0.044 ± 0.020 | −7.68 ± 0.09 | 0.000 ± 0.013 | −8.48 ± 0.10 | 0.181 ± 0.020 | −7.49 ± 0.13 | −7.86 ± 0.10 | moderately better than colchicine | – | –
3 | COc1cc2c(c(OC(=O)C(C)C)c1OC)-c1ccc(OC)c(=O)cc1[C@@H](NC(C)=O)CC2 [Compound 5, N-[(7S)-1-(((methyl)ethyl)carbonyloxy)-2,3,10-trimethoxy-9-oxo-5,6,7,9-tetrahydrobenzo [α]heptalen-7-yl]acetamide] | 0.031 ± 0.018 | −6.12 ± 0.04 | 0.265 ± 0.043 | −5.09 ± 0.06 | 0.451 ± 0.025 | −5.25 ± 0.08 | 0.025 ± 0.044 | −5.46 ± 0.13 | −0.003 ± 0.048 | −5.51 ± 0.13 | 0.258 ± 0.024 | −5.22 ± 0.06 | −5.33 ± 0.10 | – | – | –
4 | COc1cc2c(c(OCc3ccccc3)c1OC)-c1ccc(OC)c(=O)cc1[C@@H](NC(C)=O)CC2 [Compound 10, N-[(7S)-2,3,10-trimethoxy-9-oxo-1-((phenyl)methoxy)-5,6,7,9-tetrahydrobenzo [α]heptalen-7-yl]acetamide] | 0.088 ± 0.022 | −6.42 ± 0.09 | 0.256 ± 0.032 | −5.77 ± 0.10 | 0.387 ± 0.016 | −6.27 ± 0.08 | 0.080 ± 0.026 | −6.17 ± 0.07 | 0.012 ± 0.022 | −6.45 ± 0.09 | 0.250 ± 0.031 | −5.66 ± 0.10 | −6.16 ± 0.08 | – | – | –
5 | COc1cc2c(c(OC)c1OC)-c1ccc(OC)c(=O)cc1[C@@H](NC(C)=O)CC2 [Colchicine, N-[(7S)-1,2,3,10-tetramethoxy-9-oxo-5,6,7,9-tetrahydrobenzo[α]heptalen-7-yl]acetamide, reference compound] | 0.026 ± 0.005 | – | 0.118 ± 0.042 | – | 0.377 ± 0.010 | – | 0.061 ± 0.048 | – | 0.016 ± 0.021 | – | 0.107 ± 0.017 | – | – | – | – | –
6 | COc1cc2c(c(OCc3cccc(Cl)c3)c1OC)-c1ccc(OC)c(=O)cc1[C@@H](NC(C)=O)CC2 [Compound 12, N-[(7S)-2,3,10-trimethoxy-9-oxo-1-((phenyl(3-chloro))methoxy)-5,6,7,9-tetrahydrobenzo[α]heptalen-7-yl]acetamide] | 0.051 ± 0.027 | −6.47 ± 0.12 | 0.245 ± 0.024 | −6.00 ± 0.04 | 0.390 ± 0.025 | −6.30 ± 0.12 | 0.040 ± 0.038 | −6.43 ± 0.15 | −0.015 ± 0.021 | −6.46 ± 0.09 | 0.328 ± 0.022 | −6.39 ± 0.11 | −6.30 ± 0.10 | – | – | –
7 | CCCOc1cc2c(c(OC)c1OC)-c1ccc(SC)c(=O)cc1[C@@H](NC(C)=O)CC2 [Compound 43, N-[(7S)-3-propoxy-1,2-dimethoxy-10-methylsulfanyl-9-oxo-5,6,7,9-tetrahydrobenzo[α]heptalen-7-yl]acetamide] | – | – | 0.198 ± 0.024 | −8.76 ± 0.11 | 0.399 ± 0.015 | −8.71 ± 0.10 | 0.025 ± 0.025 | −8.66 ± 0.12 | 0.010 ± 0.014 | −8.55 ± 0.09 | 0.214 ± 0.022 | −8.51 ± 0.15 | −8.67 ± 0.11 | consistently the most effective | stronger than colchicine | 2.13 ± 0.77
8 | C=CCOc1cc2c(c(OC)c1OC)-c1ccc(SC)c(=O)cc1[C@@H](NC(C)=O)CC2 [Compound 41, N-[(7S)-1,2-dimethoxy-10-methylsulfanyl-9-oxo-3-(prop(2-en)oxy)-5,6,7,9-tetrahydrobenzo[α]heptalen-7-yl]acetamide] | – | – | 0.243 ± 0.012 | −8.50 ± 0.11 | 0.472 ± 0.016 | −8.31 ± 0.12 | 0.039 ± 0.016 | −8.45 ± 0.11 | −0.050 ± 0.022 | −8.29 ± 0.10 | – | – | −8.39 ± 0.11 | – | stronger than colchicine | –
